For assay [1], the system named is advanced NSCLC patients. Kind of assay: Phase 3 randomized trial, Atezolizumab vs docetaxel in second line advanced NSCLC: progression-free survival by baseline ctDNA mutation metric. The note with it: for Events/Total number of patients: PFS events. Format: in vivo, human. The text has this: In a Phase 3, open-label, multicenter randomized controlled trial, NSCLC patients received either Atezolizumab or docetaxel in a second line setting of advanced NSCLC. Blood plasma samples were obtained from 102 patients prior to start of second line therapy. The AVENIO® ctDNA kit, Surveillance Panel (Roche Sequencing Solutions, Pleasanton, Calif.) was used to assess the number of mutations in patient samples. Cell-free DNA (cfDNA) from the patients was isolated and analyzed according to the manufacturer's instructions of the AVENIO® ctDNA Kit. The metrics assessed included the numbers of variants and maximum allele frequency (MaxAF, the highest allele frequency of a single mutation among all mutations detected within a single sample).
The “number of mutations” metric was assessed on the population level and patients were assessed for progression-free survival (PFS) and overall survival (OS). (FIGS. 1 and 2, Tables 2 and 3) Using median or 75th percentile cut-off, patients treated with Atezolizumab and with number of mutations greater or equal median or 75th percentile have longer progression survival compared to that of chemotherapy, with a HR of 0.67 or 0.49, respectively. Meanwhile, Atezolizumab didn't show more benefit vs chemotherapy in patients with number of mutations fewer than the median or 75th percentile. The HR is 1.12 and 1.05 for <median or <75 percentile, respectively.
The MaxAF detected in the blood samples was also used to assess its relationship with progression free survival and overall survival. Using median cut-off, patients with MaxAF greater than the median have longer progression free survival when treated with Atezolizumab compared to chemotherapy, with a HR of 0.56 (FIG. 3, Table 4). In patients with MaxAF lesser the median, no benefit was observed on treatment with Atezolizumab vs chemotherapy (HR of 1.45).

Assay [2] deals with NSCLC patients. Kind of assay: Same Phase 3 trial with serial ctDNA monitoring: overall survival by maxMMPM at C3D1. In kind it is in vivo, human. The method, then:
In this example, the patients' samples from the same Phase 3 trial as described in Example 1 were collected processed an analyzed essentially as described in Example 1. However, the samples were collected serially during the administration of therapy.
Multiple metrics of circulating tumor DNA (ctDNA) were assessed for association with OS.
Plasma from 94 patients taken at baseline and at subsequent cycles of therapy every three weeks (C2D1, C3D1, and C4D1) were analyzed retrospectively for ctDNA with the AVENIO ctDNA Surveillance Kit (Roche Sequencing Solutions, Pleasanton, Calif.) Mutations detected in matched PBMC DNA were excluded in correlation analyses with clinical outcomes. ctDNA was measured by allele frequency (AF) or mutant molecules per milliliter (MMPM), and summarized across multiple mutations within a sample by median, mean or maximum. Concordance between these per-sample metrics and PFS/OS were assessed using C index, which is equivalent to AUC under a Receiver Operating Characteristic (ROC) curve.
Specifically, samples were collected and assessed at drug administration cycle 1, 2, or 3 or 4 taken in each case, on day 1 (C1D1, C2D1, C3D1, and C4D1). […] Using the max MMPM at C3D1, the patients were dichotomized at a median for the entire cohort of 8.75 maximal MMPM. […] In the docetaxel arm, the 1-year survival rate among MMPM low vs MMPM high patients was 0.7 vs 0.07. Because mutation metrics obtained from overall ctDNA levels were associated with OS in metastatic NSCLC, ctDNA is a promising non-invasive blood based biomarker in the metastatic setting of NSCLC.

Assay [3] relates to NSCLC patients. The note with it: ≥2L NSCLC patients; previously demonstrated by the study; cited from earlier work.
Where [4] appears, read: number of detected variants <75th percentile (<12).
[5] abbreviates: number of detected variants <Median (<6.5).
Setting [6] is: number of detected variants ≥75th percentile (≥12).
Setting [7] is: number of detected variants ≥Median (≥6.5).
[8] abbreviates: patients with MaxAF <Median (<44.58) at baseline.
Setting [9] is: patients with MaxAF ≥Median (≥44.58) at baseline.
The mark [10] stands for this setting: patients with number of detected variants <75th percentile (<12) at baseline.
Setting [11] is: patients with number of detected variants <Median (<6.5) at baseline.
The mark [12] stands for this setting: patients with number of detected variants ≥75th percentile (≥12) at baseline.
[13] abbreviates: patients with number of detected variants ≥Median (≥6.5) at baseline.
The mark [14] stands for this setting: MMPM high patients (max MMPM at C3D1, dichotomized at median 8.75).
Where [15] appears, read: MMPM low patients (max MMPM at C3D1, dichotomized at median 8.75).

As to `CC(=O)O[C@@]12CO[C@@H]1C[C@H](O)[C@@]1(C)C(=O)[C@H](O)C3=C(C)[C@@H](OC(=O)[C@H](O)[C@@H](NC(=O)OC(C)(C)C)c4ccccc4)C[C@@](O)([C@@H](OC(=O)c4ccccc4)[C@H]21)C3(C)C` [Docetaxel, docetaxel], the “Events/Total number of patients” value in assay [1] (MaxAF <Median (<44.58)) was 27/28; in assay [1] (MaxAF ≥Median (≥44.58)), 23/23; in assay [1] (setting [4]) it was 37/37; in assay [1] (setting [5]), 27/27; in assay [1] (setting [6]), 13/14; in assay [1] (setting [7]), 23/24. For the same molecule, the “Median Progression Free Survival” value in assay [1] (setting [8]) is listed as 4.09; in assay [1] (setting [9]), 3.09; in assay [1] (setting [10]), 4.07; in assay [1] (setting [11]), 3.98; in assay [1] (setting [12]) it was 2.41; in assay [1] (setting [13]), 2.94. For the same molecule, the “1-year survival rate (OS)” value amounted to 0.07 in assay [2] (setting [14]) and 0.7 in assay [2] (setting [15]).
As for atezolizumab, the “OS benefit, atezolizumab vs docetaxel” value in assay [3] is given as “clinically significant OS benefit”. Further, the “Hazard Ratio (HR), progression free survival, Atezolizumab vs docetaxel” value in assay [1] (MaxAF <Median (<44.58)) amounted to 1.45; in assay [1] (MaxAF ≥Median (≥44.58)), 0.56; in assay [1] (setting [4]) it was 1.05; in assay [1] (setting [5]), 1.12; in assay [1] (setting [6]) it was 0.49; in assay [1] (setting [7]) it was 0.67. The “Events/Total number of patients” value in assay [1] (MaxAF <Median (<44.58)) is on record as 22/23; in assay [1] (MaxAF ≥Median (≥44.58)), 24/28; in assay [1] (setting [4]), 35/38; in assay [1] (setting [5]) it was 23/24; in assay [1] (setting [6]) it was 11/13; in assay [1] (setting [7]), 23/27. Besides, the “Median Progression Free Survival” value in assay [1] (setting [8]) is on record as 2.6; in assay [1] (setting [9]), 4.99; in assay [1] (setting [10]) it was 2.71; in assay [1] (setting [11]) it was 2.74; in assay [1] (setting [12]) it was 5.85; in assay [1] (setting [13]), 2.79. Moreover, the “1-year survival rate (OS)” value in assay [2] (setting [14]) is given as 0.43; in assay [2] (setting [15]), 0.81.
